The supplement of paper PMC10307832

Key:
Assay in all cases: relative viability (nuclei count vs DMSO), 5 days (fraction); higher = more cells survive
[1] = compound: CC(C)C[C@H](NC(=O)[C@H](Cc1ccccc1)NC(=O)c1cnccn1)B(O)O [Bortezomib] + CS(=O)(=O)CCNCc1ccc(-c2ccc3ncnc(Nc4ccc(OCc5cccc(F)c5)c(Cl)c4)c3c2)o1 [Lapatinib] (partner 2 µM)
In short: (§1)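 A single step with final 0.05% Triton X-100, 1% formaldehyde and 1 ug/ml Hoechst fixed the cells and stained nuclei 5 days after treatment. Lung cancer cell lines in 1536-well plates had been treated by pin tool the day after seeding with one drug alone or a fixed anchor-drug dose plus five library-drug doses (not always all listed) in √10 steps, and nuclei were counted on 4× images. Relative viability is the ratio of nuclei in treated wells to nuclei in vehicle wells, taken as the median of duplicate plates.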

[2] = compound: CC1=CC(=NN1)NC2=CC(=NC(=N2)/C=C/C3=CC=CC=C3)N4CCN(CC4)C + COc1cc2c(Oc3ccc(NC(=O)C4(C(=O)Nc5ccc(F)cc5)CC4)cc3F)ccnc2cc1OCCCN1CCOCC1 [Foretinib] (partner 0.25 µM)
In short: as §1

[3] = compound: CC1=CC(=NN1)NC2=CC(=NC(=N2)/C=C/C3=CC=CC=C3)N4CCN(CC4)C + N=C(N)NC(=N)NCCc1ccccc1 [Phenformin] (partner 250 µM)
In short: as §1

[4] = compound: COC1=CC(c2cc3ccccc3[nH]2)=N/C1=C\c1[nH]c(C)cc1C [Obatoclax] + CC(C)C[C@H](NC(=O)[C@H](Cc1ccccc1)NC(=O)c1cnccn1)B(O)O [Bortezomib] (partner 0.002 µM)
In short: as §1

| Cell Line | relative viability ([1]; first compound 0.0002 µM) | relative viability ([1]; first compound 0.000632 µM) | relative viability ([1]; first compound 0.002 µM) | relative viability ([1]; first compound 0.006325 µM) | relative viability ([1]; first compound 0.02 µM) | relative viability ([2]; first compound 0.08 µM) | relative viability ([2]; first compound 0.253 µM) | relative viability ([2]; first compound 0.8 µM) | relative viability ([2]; first compound 2.53 µM) | relative viability ([2]; first compound 8 µM) | relative viability ([3]; first compound 0.08 µM) | relative viability ([3]; first compound 0.253 µM) | relative viability ([3]; first compound 0.8 µM) | relative viability ([3]; first compound 2.53 µM) | relative viability ([3]; first compound 8 µM) | relative viability ([4]; first compound 0.01 µM) | relative viability ([4]; first compound 0.03162 µM) | relative viability ([4]; first compound 0.1 µM) | relative viability ([4]; first compound 0.3162 µM) | relative viability ([4]; first compound 1 µM) |
| --- | --- | --- | --- | --- | --- | --- | --- | --- | --- | --- | --- | --- | --- | --- | --- | --- | --- | --- | --- | --- |
| SK-LU-1 | 0.781 | 0.894 | 0.497 | 0.13 | 0.146 | 0.756 | 0.821 | 0.671 | 0.177 | 0.0847 | 0.58 | 0.511 | 0.475 | 0.109 | 0.0429 | 1.15 | 1.05 | 0.44 | 1.05 | 0.75 |
| HCC-78 | 0.899 | 0.791 | 0.715 | 0.826 | 0.153 | 0.582 | 0.666 | 0.54 | 0.492 | 0.233 | 0.647 | 0.704 | 0.722 | 0.381 | 0.293 | 0.539 | 0.402 | 0.718 | 0.456 | 0.743 |
| LCLC-97TM1 | 0.651 | 0.701 | 0.749 | 0.248 | 0.118 | 0.911 | 0.954 | 0.961 | 0.296 | 0.132 | 0.448 | 0.468 | 0.41 | 0.236 | 0.154 | 0.735 | 0.449 | 0.439 | 0.619 | 0.213 |
| NCI-H1563 | 0.809 | 0.869 | 0.684 | 0.506 | 0.481 | 0.903 | 0.923 | 0.87 | 0.746 | 0.565 | 0.726 | 0.659 | 0.664 | 0.592 | 0.43 | 0.905 | 0.883 | 0.835 | 0.714 | 0.833 |
